Reference: paper PMC8550792, “Evolution of kinase polypharmacology across HSP90 drug discovery” (Cell Chemical Biology, 2021)

Key:
Test in all cases: biochemical
Assay type in all cases: biochemical
[1] = target: T1, 382 unique human kinases (Homo sapiens, UniProt O60674, V617F); conditions: kinase JAK2 (V617F), compound 10 uM; for remaining activity at 10 µM: read-out: % Enzyme Activity (relative to DMSO controls)
T1 construct: purchased Reaction Biology (HotSpot contract assay)

[2] = target: T2, 382 unique human kinases (Homo sapiens, UniProt P07949, Y806H); conditions: RET (Y806H), 10 uM; for remaining activity at 10 µM: read-out: % Enzyme Activity (relative to DMSO controls)
T2 construct: purchased Reaction Biology (HotSpot contract assay)

[3] = target: T3, 382 unique human kinases (Homo sapiens, UniProt P14616); conditions: kinase IRR/INSRR, compound 10 uM; for remaining activity at 10 µM: read-out: % Enzyme Activity (relative to DMSO controls)
T3 construct: purchased Reaction Biology (HotSpot contract assay)

[4] = target: T4, 382 unique human kinases (Homo sapiens, UniProt Q16539); conditions: kinase P38a/MAPK14, compound 10 uM; for remaining activity at 10 µM: read-out: % Enzyme Activity (relative to DMSO controls)
T4 construct: purchased Reaction Biology (HotSpot contract assay)

[5] = target: T5, 382 unique human kinases (Homo sapiens, UniProt Q96L34); conditions: kinase MARK4, compound 10 uM; for remaining activity at 10 µM: read-out: % Enzyme Activity (relative to DMSO controls)
T5 construct: purchased Reaction Biology (HotSpot contract assay)
T5 sequence (Q96L34 1-752): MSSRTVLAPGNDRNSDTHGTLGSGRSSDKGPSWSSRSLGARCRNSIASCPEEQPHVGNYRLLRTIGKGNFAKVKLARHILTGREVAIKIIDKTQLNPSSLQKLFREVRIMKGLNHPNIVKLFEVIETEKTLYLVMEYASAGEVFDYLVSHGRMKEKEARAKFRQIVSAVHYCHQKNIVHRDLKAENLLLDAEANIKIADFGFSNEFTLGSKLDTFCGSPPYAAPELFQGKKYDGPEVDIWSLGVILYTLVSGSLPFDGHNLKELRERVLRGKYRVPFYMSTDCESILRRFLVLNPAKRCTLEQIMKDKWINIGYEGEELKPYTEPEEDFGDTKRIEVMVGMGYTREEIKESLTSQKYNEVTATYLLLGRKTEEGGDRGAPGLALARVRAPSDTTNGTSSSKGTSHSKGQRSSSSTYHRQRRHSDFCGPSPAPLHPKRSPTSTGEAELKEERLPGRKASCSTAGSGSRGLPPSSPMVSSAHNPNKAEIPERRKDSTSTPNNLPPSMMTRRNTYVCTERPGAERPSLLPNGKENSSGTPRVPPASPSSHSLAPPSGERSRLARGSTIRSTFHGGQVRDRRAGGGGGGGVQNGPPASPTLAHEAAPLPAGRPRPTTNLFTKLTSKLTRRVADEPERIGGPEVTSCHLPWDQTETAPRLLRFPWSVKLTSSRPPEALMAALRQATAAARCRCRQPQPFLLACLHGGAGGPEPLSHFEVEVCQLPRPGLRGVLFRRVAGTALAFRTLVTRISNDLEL

[6] = target: T6, 382 unique human kinases (Homo sapiens, UniProt Q99986); conditions: VRK1, 10 uM; for remaining activity at 10 µM: read-out: % Enzyme Activity (relative to DMSO controls)
T6 construct: purchased Reaction Biology (HotSpot contract assay)
T6 sequence (Q99986 1-396): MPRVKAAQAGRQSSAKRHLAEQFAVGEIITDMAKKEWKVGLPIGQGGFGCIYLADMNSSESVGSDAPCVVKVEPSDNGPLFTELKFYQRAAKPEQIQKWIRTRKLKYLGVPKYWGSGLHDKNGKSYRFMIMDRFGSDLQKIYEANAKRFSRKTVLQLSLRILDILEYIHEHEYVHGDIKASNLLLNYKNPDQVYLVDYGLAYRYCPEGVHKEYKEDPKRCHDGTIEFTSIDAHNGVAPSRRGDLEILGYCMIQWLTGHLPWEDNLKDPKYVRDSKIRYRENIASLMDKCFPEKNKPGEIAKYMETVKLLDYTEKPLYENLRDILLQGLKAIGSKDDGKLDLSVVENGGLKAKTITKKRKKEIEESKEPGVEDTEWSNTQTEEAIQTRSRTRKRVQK

[7] = target: T7, 382 unique human kinases (Homo sapiens, UniProt O15530); conditions: PDK1/PDPK1, 10 uM; for remaining activity at 10 µM: read-out: % Enzyme Activity (relative to DMSO controls)
T7 construct: purchased Reaction Biology (HotSpot contract assay)
T7 sequence (O15530 1-556): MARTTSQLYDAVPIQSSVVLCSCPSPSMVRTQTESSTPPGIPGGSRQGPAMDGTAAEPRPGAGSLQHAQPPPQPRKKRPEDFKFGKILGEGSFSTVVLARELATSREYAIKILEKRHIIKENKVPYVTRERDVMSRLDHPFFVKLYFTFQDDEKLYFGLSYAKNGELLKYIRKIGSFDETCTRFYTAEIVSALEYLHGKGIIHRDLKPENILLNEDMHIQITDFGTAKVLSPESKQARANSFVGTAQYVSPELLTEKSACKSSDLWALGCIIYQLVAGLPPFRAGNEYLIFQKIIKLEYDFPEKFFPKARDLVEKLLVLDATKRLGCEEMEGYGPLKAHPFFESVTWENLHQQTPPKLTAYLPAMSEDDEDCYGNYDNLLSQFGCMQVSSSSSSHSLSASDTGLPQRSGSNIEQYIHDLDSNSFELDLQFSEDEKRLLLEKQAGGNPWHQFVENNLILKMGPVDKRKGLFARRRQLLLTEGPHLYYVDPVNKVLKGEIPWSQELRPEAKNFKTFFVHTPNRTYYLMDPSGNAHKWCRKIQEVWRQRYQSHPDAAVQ

[8] = target: T8, 382 unique human kinases (Homo sapiens, UniProt P53671); conditions: LIMK2, [ATP] 5 µM, compound 10 uM; for remaining activity at 10 µM: read-out: % Enzyme Activity (relative to DMSO controls)
T8 construct: purchased Reaction Biology (HotSpot contract assay)

[9] = target: T9, 382 unique human kinases (Homo sapiens, UniProt Q05513); conditions: PKCzeta, 10 uM; for remaining activity at 10 µM: read-out: % Enzyme Activity (relative to DMSO controls)
T9 construct: purchased Reaction Biology (HotSpot contract assay)
T9 sequence (Q05513 1-592): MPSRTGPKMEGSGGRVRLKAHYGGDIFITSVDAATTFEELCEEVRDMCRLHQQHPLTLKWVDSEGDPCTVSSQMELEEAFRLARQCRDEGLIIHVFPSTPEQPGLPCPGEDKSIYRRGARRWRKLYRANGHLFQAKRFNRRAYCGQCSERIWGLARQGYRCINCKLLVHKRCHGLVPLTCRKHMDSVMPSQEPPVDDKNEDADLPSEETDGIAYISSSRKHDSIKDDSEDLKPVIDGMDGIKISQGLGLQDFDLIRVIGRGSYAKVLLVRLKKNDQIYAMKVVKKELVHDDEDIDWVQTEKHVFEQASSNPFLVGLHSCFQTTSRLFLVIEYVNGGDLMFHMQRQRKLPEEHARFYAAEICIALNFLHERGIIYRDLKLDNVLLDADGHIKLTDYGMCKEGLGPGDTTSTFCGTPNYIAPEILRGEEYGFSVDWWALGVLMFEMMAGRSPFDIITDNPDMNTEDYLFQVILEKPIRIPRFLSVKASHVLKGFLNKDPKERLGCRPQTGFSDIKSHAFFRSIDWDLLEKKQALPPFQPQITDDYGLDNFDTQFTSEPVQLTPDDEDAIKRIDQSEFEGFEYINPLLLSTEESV

[10] = target: T10, 382 unique human kinases (Homo sapiens, UniProt Q9Y572); conditions: RIPK3, [ATP] 2.5 µM, compound 10 uM; for remaining activity at 10 µM: read-out: % Enzyme Activity (relative to DMSO controls)
T10 construct: purchased Reaction Biology (HotSpot contract assay)
T10 sequence (Q9Y572 whole entry): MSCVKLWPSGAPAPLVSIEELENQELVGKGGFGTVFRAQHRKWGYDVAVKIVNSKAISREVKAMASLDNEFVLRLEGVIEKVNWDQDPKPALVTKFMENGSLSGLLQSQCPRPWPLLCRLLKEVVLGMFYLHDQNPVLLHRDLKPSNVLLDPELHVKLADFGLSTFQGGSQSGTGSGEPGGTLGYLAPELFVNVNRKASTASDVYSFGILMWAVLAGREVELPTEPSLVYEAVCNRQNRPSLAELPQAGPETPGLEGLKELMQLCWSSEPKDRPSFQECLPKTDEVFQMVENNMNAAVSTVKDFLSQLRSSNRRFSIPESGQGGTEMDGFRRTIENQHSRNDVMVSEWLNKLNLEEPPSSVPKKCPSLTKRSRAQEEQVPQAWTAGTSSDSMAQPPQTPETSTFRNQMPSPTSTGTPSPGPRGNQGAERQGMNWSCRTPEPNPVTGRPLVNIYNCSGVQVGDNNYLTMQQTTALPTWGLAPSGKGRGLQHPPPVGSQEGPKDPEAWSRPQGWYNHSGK

T2 sequence (P07949 29-1114 Y806H): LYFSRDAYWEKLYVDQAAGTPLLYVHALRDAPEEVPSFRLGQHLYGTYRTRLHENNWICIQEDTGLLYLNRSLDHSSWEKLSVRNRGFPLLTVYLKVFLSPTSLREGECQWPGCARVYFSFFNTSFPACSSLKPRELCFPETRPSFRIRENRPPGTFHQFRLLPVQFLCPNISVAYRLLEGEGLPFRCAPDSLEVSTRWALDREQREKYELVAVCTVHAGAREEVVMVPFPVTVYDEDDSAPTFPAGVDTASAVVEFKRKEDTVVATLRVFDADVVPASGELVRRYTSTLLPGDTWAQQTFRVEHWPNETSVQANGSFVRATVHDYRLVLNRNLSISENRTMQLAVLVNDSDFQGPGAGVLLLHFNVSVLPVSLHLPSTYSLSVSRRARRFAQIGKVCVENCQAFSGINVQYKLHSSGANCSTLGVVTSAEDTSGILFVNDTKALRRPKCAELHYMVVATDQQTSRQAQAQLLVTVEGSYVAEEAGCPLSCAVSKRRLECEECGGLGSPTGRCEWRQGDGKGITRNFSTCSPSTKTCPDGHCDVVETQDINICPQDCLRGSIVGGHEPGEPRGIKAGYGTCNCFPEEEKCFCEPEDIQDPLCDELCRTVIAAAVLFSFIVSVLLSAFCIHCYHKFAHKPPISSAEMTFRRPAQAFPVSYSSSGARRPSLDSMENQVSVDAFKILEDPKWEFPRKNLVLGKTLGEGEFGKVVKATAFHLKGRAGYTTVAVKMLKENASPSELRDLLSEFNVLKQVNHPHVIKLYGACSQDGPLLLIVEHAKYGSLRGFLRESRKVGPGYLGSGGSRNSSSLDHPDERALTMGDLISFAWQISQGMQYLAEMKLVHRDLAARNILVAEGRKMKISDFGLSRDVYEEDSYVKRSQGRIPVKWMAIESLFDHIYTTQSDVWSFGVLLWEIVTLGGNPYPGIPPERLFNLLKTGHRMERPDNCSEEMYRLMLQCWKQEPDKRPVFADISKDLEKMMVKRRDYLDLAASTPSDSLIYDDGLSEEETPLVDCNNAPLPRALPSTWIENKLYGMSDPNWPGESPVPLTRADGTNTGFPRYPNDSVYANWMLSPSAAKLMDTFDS
T3 sequence (P14616 27-1297): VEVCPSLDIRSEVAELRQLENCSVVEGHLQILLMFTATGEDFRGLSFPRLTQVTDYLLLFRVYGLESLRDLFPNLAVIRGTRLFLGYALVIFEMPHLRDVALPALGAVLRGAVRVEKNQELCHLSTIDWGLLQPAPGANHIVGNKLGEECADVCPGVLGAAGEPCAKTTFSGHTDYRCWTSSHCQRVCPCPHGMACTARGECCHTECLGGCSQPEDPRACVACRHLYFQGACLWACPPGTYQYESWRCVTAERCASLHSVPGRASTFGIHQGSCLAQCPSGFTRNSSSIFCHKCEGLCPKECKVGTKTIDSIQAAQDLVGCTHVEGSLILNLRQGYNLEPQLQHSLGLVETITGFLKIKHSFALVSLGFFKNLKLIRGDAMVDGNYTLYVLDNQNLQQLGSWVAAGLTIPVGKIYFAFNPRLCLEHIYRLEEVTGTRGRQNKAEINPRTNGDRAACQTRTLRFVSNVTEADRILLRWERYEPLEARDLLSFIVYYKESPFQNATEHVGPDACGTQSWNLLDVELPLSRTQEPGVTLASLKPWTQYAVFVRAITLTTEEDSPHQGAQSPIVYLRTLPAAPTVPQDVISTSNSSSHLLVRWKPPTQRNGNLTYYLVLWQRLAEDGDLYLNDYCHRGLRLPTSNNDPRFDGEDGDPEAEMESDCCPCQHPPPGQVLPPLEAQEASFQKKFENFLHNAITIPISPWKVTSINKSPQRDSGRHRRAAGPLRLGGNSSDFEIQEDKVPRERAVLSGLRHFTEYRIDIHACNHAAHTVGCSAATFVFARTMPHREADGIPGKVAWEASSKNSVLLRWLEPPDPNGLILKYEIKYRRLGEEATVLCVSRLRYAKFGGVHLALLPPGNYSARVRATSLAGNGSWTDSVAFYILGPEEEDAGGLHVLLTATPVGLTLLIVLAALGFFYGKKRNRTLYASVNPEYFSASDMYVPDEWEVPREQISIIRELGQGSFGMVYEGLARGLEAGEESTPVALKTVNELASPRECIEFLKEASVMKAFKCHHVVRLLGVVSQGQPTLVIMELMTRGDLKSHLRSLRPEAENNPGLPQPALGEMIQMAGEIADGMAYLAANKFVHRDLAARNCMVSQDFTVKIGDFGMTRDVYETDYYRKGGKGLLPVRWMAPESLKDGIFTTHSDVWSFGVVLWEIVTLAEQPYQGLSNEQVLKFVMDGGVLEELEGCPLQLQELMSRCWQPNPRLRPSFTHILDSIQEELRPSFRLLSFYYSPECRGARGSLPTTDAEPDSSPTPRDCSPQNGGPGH
T1 sequence (O60674 whole entry V617F): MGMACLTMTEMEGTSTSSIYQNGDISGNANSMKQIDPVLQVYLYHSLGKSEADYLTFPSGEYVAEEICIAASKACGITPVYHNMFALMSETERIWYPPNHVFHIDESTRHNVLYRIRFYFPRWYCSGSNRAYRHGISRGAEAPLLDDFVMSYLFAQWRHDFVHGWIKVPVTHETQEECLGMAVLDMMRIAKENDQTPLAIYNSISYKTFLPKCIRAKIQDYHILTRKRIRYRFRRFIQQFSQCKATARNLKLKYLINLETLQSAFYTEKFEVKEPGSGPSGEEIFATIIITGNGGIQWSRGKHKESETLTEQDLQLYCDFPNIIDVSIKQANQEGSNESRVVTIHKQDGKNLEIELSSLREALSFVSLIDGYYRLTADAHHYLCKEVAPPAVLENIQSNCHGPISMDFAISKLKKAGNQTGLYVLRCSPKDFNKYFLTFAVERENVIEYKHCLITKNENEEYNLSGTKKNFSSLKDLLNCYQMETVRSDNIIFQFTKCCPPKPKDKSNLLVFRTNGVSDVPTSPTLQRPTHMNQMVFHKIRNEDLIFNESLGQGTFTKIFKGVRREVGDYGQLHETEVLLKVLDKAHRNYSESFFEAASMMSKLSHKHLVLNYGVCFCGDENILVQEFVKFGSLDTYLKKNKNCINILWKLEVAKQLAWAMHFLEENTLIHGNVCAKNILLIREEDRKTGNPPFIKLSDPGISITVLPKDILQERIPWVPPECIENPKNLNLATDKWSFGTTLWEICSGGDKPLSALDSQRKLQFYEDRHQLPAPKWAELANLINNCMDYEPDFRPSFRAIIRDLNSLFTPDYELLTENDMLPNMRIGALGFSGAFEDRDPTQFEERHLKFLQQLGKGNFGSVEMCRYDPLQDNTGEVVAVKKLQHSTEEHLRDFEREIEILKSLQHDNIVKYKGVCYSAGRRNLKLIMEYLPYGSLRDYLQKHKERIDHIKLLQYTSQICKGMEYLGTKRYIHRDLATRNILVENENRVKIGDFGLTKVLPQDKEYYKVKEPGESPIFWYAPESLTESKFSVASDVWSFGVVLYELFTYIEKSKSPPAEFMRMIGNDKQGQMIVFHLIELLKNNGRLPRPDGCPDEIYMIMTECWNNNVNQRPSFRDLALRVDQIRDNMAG
T4 sequence (Q16539 whole entry): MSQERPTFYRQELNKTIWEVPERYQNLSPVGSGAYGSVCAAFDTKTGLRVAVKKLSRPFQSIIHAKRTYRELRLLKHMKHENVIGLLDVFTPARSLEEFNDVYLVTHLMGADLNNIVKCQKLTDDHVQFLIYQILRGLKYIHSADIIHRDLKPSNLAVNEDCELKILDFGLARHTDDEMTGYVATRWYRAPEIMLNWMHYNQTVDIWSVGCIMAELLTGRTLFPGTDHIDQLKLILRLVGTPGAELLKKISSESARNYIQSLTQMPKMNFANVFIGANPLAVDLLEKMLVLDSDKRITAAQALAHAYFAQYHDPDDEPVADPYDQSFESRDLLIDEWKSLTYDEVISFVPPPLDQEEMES
T8 sequence (P53671 whole entry): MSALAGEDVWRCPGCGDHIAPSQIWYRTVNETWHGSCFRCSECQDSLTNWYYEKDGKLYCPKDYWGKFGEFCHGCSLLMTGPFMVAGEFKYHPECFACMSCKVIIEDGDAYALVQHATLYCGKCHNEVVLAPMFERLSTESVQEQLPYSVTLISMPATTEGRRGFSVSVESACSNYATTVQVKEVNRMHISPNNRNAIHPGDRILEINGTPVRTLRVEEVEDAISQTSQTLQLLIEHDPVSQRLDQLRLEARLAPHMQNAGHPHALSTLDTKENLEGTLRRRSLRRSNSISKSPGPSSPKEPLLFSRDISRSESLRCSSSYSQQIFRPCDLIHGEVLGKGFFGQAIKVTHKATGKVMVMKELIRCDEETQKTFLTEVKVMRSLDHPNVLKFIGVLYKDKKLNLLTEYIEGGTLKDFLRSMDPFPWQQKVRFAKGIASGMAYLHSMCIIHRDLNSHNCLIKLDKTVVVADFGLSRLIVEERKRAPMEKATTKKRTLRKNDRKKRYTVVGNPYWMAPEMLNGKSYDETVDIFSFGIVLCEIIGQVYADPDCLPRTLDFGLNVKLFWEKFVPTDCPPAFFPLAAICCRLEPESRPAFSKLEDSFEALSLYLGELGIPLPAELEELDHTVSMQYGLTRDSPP

| SMILES | remaining activity at 10 µM [1] | remaining activity at 10 µM [2] | remaining activity at 10 µM [3] | remaining activity at 10 µM [4] | remaining activity at 10 µM [5] | remaining activity at 10 µM [6] | remaining activity at 10 µM [7] | remaining activity at 10 µM [8] | remaining activity at 10 µM [9] | remaining activity at 10 µM [10] | % Enzyme Activity (relative to DMSO controls) [7] | % Enzyme Activity (relative to DMSO controls) [8] | % Enzyme Activity (relative to DMSO controls) [9] | % Enzyme Activity (relative to DMSO controls) [10] | % Enzyme Activity (relative to DMSO controls) [1] | % Enzyme Activity (relative to DMSO controls) [2] | % Enzyme Activity (relative to DMSO controls) [3] | % Enzyme Activity (relative to DMSO controls) [4] | % Enzyme Activity (relative to DMSO controls) [5] | % Enzyme Activity (relative to DMSO controls) [6] |
| --- | --- | --- | --- | --- | --- | --- | --- | --- | --- | --- | --- | --- | --- | --- | --- | --- | --- | --- | --- | --- |
| CC(C)c1cc(-c2n[nH]c(=O)n2-c2ccc3c(ccn3C)c2)c(O)cc1O [Ganetespib (STA9090)] | 83.1% | 78.2% | 85.7% | 89.6% | 91% | 75.3% |  |  |  |  |  |  |  |  |  |  |  |  |  |  |
| CC(C)c1cc(-c2n[nH]c(=O)n2-c2ccc3c(ccn3C)c2)c(O)cc1O [Ganetespib] |  |  |  |  |  |  | 99.4% | 46.7% | 92.3% | 59.1% |  |  |  |  |  |  |  |  |  |  |
| CCNC(=O)c1noc(-c2cc(C(C)C)c(O)cc2O)c1-c1ccc(CN2CCOCC2)cc1 [Luminespib] |  |  |  |  |  |  | 102% | 101% | 102% | 124% | 101.64% | 100.64% | 101.96% | 115.01% |  |  |  |  |  |  |
| CCNC(=O)c1noc(-c2cc(C(C)C)c(O)cc2O)c1-c1ccc(CN2CCOCC2)cc1 [Luminespib (AUY-922)] | 91.7% | 89.6% | 102% | 95.1% | 97.1% | 87% |  |  |  |  |  |  |  |  | 91.38% | 88.98% | 101.61% | 90.33% | 95.99% | 84.23% |
